{"source": "patent US10683276B2", "about": "“Heterocycle-substituted bicyclic azole pesticides” (FMC Corporation, priority 2015, dated 2020)", "format_in_all_cases": "in vivo", "key": {"[1]": {"test_system": "cotton melon aphid (Aphis gossypii (Glover))", "experiment": "Test D: control of cotton melon aphid, spray on cotton plant", "settings": "144 h, sprayed at 50 ppm, assessed after 6 days", "method": "(§1) Test compounds were formulated using a solution containing 10% acetone, 90% water and 300 ppm X-77® Spreader Lo-Foam Formula non-ionic surfactant containing alkylarylpolyoxyethylene, free fatty acids, glycols and isopropanol (Loveland Industries, Inc. Greeley, Colo., USA). The formulated compounds were applied in 1 mL of liquid through a SUJ2 atomizer nozzle with ⅛ JJ custom body (Spraying Systems Co. Wheaton, Ill., USA) positioned 1.27 cm (0.5 inches) above the top of each test unit. Test compounds were sprayed at the rates indicated, and each test was replicated three times.\nFor evaluating control of cotton melon aphid (Aphis gossypii (Glover)) through contact and/or systemic means, the test unit consisted of a small open container with a 6-7-day-old cotton plant inside. This was pre-infested with 30-40 insects on a piece of leaf according to the cut-leaf method, and the soil of the test unit was covered with a layer of sand.\nTest compounds were formulated and sprayed at 250 and/or 50 ppm. After spraying, the test units were maintained in a growth chamber for 6 days at 19° C. and 70% relative humidity. Each test unit was then visually assessed for insect mortality."}, "[2]": {"test_system": "green peach aphid (Myzus persicae (Sulzer))", "experiment": "Test C: control of green peach aphid, spray on radish plant", "settings": "144 h, sprayed at 50 ppm, assessed after 6 days", "method": "as §1\nFor evaluating control of green peach aphid (Myzus persicae (Sulzer)) through contact and/or systemic means, the test unit consisted of a small open container with a 12-15-day-old radish plant inside. This was pre-infested by placing on a leaf of the test plant 30-40 aphids on a piece of leaf excised from a culture plant (cut-leaf method). The aphids moved onto the test plant as the leaf piece desiccated. After pre-infestation, the soil of the test unit was covered with a layer of sand.\nTest compounds were formulated and sprayed at 250 and/or 50 ppm. After spraying of the formulated test compound, each test unit was allowed to dry for 1 hour and then a black, screened cap was placed on top. […] Each test unit was then visually assessed for insect mortality."}, "[3]": {"test_system": "diamondback moth (Plutella xylostella (L.))", "experiment": "Test A: control of diamondback moth, foliar spray on mustard plant", "settings": "sprayed at 250 ppm; neonate larvae on mustard plant; assessed after 6 days", "method": "as §1\nFor evaluating control of diamondback moth (Plutella xylostella (L.)) the test unit consisted of a small open container with a 12-14-day-old mustard plant inside. This was pre-infested with ˜50 neonate larvae that were dispensed into the test unit via corn cob grits using an inoculator. The larvae moved onto the test plant after being dispensed into the test unit.\nTest compounds were formulated and sprayed at 250 and/or 50 ppm. After spraying of the formulated test compound, each test unit was allowed to dry for 1 hour and then a black, screened cap was placed on top. The test units were held for 6 days in a growth chamber at 25° C. and 70% relative humidity. Plant feeding damage was then visually assessed based on foliage consumed, and larvae were assessed for mortality."}, "[4]": {"test_system": "Western Flower Thrips (Frankliniellla occidentalis (Pergande))", "experiment": "Test F: control of Western Flower Thrips, spray on Soleil bean plant", "settings": "sprayed at 250 ppm; adult thrips on Soleil bean plant; held for 6 days", "method": "For evaluating control of the Western Flower Thrips (Frankliniellla occidentalis (Pergande)) through contact and/or systemic means, the test unit consisted of a small open container with a 5-7-day-old Soleil bean plant inside.\nTest compounds were formulated and sprayed at 250 and/or 50 ppm. After spraying, the test units were allowed to dry for 1 hour, and then 22-27 adult thrips were added to each unit. A black, screened cap was placed on top, and the test units were held for 6 days at 25° C. and 45-55% relative humidity."}, "[5]": {"test_system": "sweetpotato whitefly (Bemisia tabaci (Gennadius))", "experiment": "Test E: control of sweetpotato whitefly, spray on cotton plant", "settings": "sprayed at 50 ppm; eggs on cotton plant; assessed after 13 days", "method": "as §1\nFor evaluating control of the sweetpotato whitefly (Bemisia tabaci (Gennadius)) through contact and/or systemic means, the test unit consisted of a small open container with a 12-14-day-old cotton plant inside. Prior to the spray application, both cotyledons were removed from the plant, leaving one true leaf for the assay. Adult whiteflies were allowed to lay eggs on the plant and then were removed from the test unit. Cotton plants infested with at least 15 eggs were submitted to the test for spraying.\nTest compounds were formulated and sprayed at 250 and/or 50 ppm. After spraying, the test units were allowed to dry for 1 hour. […] Each test unit was then visually assessed for insect mortality."}}}
{"smiles": "CC(C)(NC(=O)c1cccc2nn(-c3cccnc3)cc12)C(=O)NCc1ccccc1", "note": "[Compound 25, N-[1,1-dimethyl-2-oxo-2-[(phenylmethyl)amino]ethyl]-2-(3-pyridinyl)-2H-indazole-4-carboxamide]", "values": [{"measurement": "mortality at 50 ppm", "setting": "[1]", "value": "≥ 80", "unit": "%"}, {"measurement": "mortality at 50 ppm", "setting": "[2]", "value": "≥ 80", "unit": "%"}]}
{"smiles": "CN(C)C(=O)C(C)(C)NC(=O)C(C)(C)NC(=O)c1cccc2nn(-c3cccnc3)cc12", "note": "[Compound 2]", "values": [{"measurement": "control efficacy (40% or less feeding damage and/or 100% mortality)", "setting": "[3]", "value": "very good to excellent levels of control efficacy"}]}
{"smiles": "CON(C)C(=O)C(C)(C)NC(=O)c1cccc2nn(-c3cccnc3)cc12", "note": "[Compound 47]", "values": [{"measurement": "control efficacy (30% or less plant damage and/or 100% mortality)", "setting": "[4]", "value": "very good to excellent levels of control efficacy"}]}
{"smiles": "CC(C)(NC(=O)c1cccc2nn(-c3cccnc3)cc12)C(=O)NCc1ccccn1", "note": "[Compound 26]", "values": [{"measurement": "mortality", "setting": "[5]", "value": "at least 50%"}]}
{"smiles": "CC(C)(NC(=O)c1cccc2nn(-c3cccnc3)cc12)C(=O)NC1CCC1", "note": "[Compound 43]", "values": [{"measurement": "control efficacy (30% or less plant damage and/or 100% mortality)", "setting": "[4]", "value": "very good to excellent levels of control efficacy"}]}
{"smiles": "CONC(=O)C(C)(C)NC(=O)c1cccc2nn(-c3cccnc3)cc12", "note": "[Compound 48]", "values": [{"measurement": "control efficacy (30% or less plant damage and/or 100% mortality)", "setting": "[4]", "value": "very good to excellent levels of control efficacy"}]}
